How the values were obtained:
[1] = assay type: in vivo
Procedure: Compound A was administered as an aqueous solution in sterile water by daily oral gavage to adult healthy beagle dogs.
The dogs received 28 consecutive daily doses at dose levels of 0, 15, 30 or 60 mg/kg. […] Organ weights of male and female reproductive tract tissues were 33-86% lower than that of concurrent controls, and occurred in all dose groups. […] In the epididymides, vacuolation (mild) of epithelium was also present in the mid- and high-dose males. […] This was characterized in the ovaries by a lack of antral follicles, and most follicles that were present were small and contained only small numbers of granulosa cells. Compared to control dogs, the uterine bodies and horns had less myometrial tissue present. Uterine epithelium from dogs receiving Compound A with immature uteri had very little cytoplasm present. The changes in the female reproductive system may be related to atrophy rather than immaturity.

[2] = tested on: serum concentrations of testosterone (T) and luteinizing hormone (LH); experiment: Serum LH and testosterone in male dogs dosed for 1, 3 or 7 days; assay type: in vivo, beagle dogs
Procedure: To further characterize reproductive system effects, adult male healthy beagle dogs were administered sterile water (placebo) or Compound A orally by gavage for 1, 3 or 7 days (Day 0=first day of dosing). Serum was collected from blood for determination of serum concentrations of testosterone (T) and luteinizing hormone (LH).
There were typically one to three spikes of LH and T within the sampling period. In many dogs the LH spikes preceded the T spikes by 20 to 40 minutes.
In dogs receiving Compound A, serum LH and T concentrations were generally near the lower baseline values at the first time point evaluated (1 hour after the first doses), and then typically declined throughout the 4-hour evaluation. This trend toward decreased LH and T concentrations from 60 to 300 minutes postdose was statistically significant (p<0.0001). LH and T remained at low concentrations for the remainder of the study. […] The decline in LH to very low (mean values of 1.5 to 3.8 ng/ml for Compound A versus 10.2 to 14.8 ng/ml for Controls) concentration was more rapid than that seen with T. In dogs receiving Compound A, serum LH and T concentrations at Day 2 were generally lower than those at Day 0. Serum LH concentrations on Day 6 were similar to those on Day 2, while serum T concentrations on Day 6 were generally lower than those on Day 2. By Days 2 and 6, some LH and many T samples were below the limit of detection despite using sensitive assays.

[3] = tested on: serum LH, T, DHEA, and androstenedione; experiment: Lower-dose 7-day study in male beagle dogs; assay type: in vivo
Procedure: Another study was conducted to evaluate the effects of lower doses (0.1, 0.5, 2.5, 12.5 mg/kg) of Compound A administered to male beagle dogs for 7 days.

[4] = tested on: serum LH, T, androstenedione, and DHEA; experiment: Reversibility of the effects on hormones, 7 days dosing and 14-day postdose period; assay type: in vivo, dogs
Procedure: The following investigative study was conducted to determine whether the changes observed after 1 week of Compound A administration were reversible after a 14-day postdose period. The first day of dosing was Day 1.
There were eight dogs in Group 1, who received placebo (sterile water) and twelve dogs in Group 2, who received Compound A. Dogs were scheduled to be dosed for 7 days; however, one dog died shortly after receiving the sixth dose of compound A. All eight dogs in Group 1 had hormonal evaluations on Day 7; 4 of these dogs were necropsied on Day 8. The remaining four dogs in Group 1 had hormonal evaluations on Day 21 (14 days postdose), and were necropsied on Day 22. In Group 2, eleven dogs had hormonal evaluations on Day 7, and five were necropsied on Day 8. The remaining six dogs in Group 2 had hormonal evaluations on Day 21 (14 days postdose) and were necropsied on Day 22.
There were typically one to three spikes of LH and T within the sampling period. In many dogs the LH spikes preceded the T spikes by 30 to 60 minutes. Androstenedione and DHEA concentrations tended to rise and fall with those of T, although in some dogs there were many values below the limit of quantitation.
In dogs receiving Compound A at Day 7, serum LH, T, androstenedione, and DHEA concentrations were often very low. Group mean values for LH, T, androstenedione, and DHEA were 14.7, 1.5, 0.37, and 0.88 ng/ml for dogs receiving sterile water, while dogs receiving Compound A had group mean values of 2.4, 0.05, 0.01 and 0.03 ng/ml, respectively. […] It should also be noted that on Day 7 almost all T, androstenedione, and DHEA samples were below the limit of detection despite using sensitive assays.

serum testosterone = experiment: Reduction of LHRH-stimulated serum testosterone in mice; assay type: in vivo, male nude mice
Procedure: The effects of Compounds A, B, C, D, E and F on serum testosterone were tested in mice given intramuscular (i.m.) luteinizing hormone releasing hormone (LHRH) to drive testicular androgen biosynthesis.
Male nude mice (8 weeks old, 5 mice/group) were dosed orally with 0, 5, 15, 45, 90, 150 or 300 mg/kg of Compound A in 20% hydroxypropyl β-cyclodextran (HPβCD). After 1 hour, animals were given an i.m. injection of LHRH (250 ng/kg in 50 μl Sterile Water) into the biceps femoris muscle to drive testosterone production. After an additional hour, the animals were anesthetized with ketamine/xylazine, bled by cardiac puncture, and serum testosterone levels were determined by radioimmunoassay.
The effects of 90 mg/kg of Compounds A, B, C, D, E and F on LHRH-stimulated serum testosterone levels were compared in male nude mice.

[5] = tested on: Shionogi mouse mammary carcinoma tumors; experiment: Androgen-dependent tumor growth, Shionogi carcinoma in nude mice; assay type: in vivo; details: end of 15 days, relative to vehicle control
Procedure: (§1) Following the observation of reduction of serum testosterone in mice, the effects of Compound A on androgen-dependent tumor growth were tested. […] Shionogi mouse mammary carcinoma tumors were grown in nude mice as an androgen-dependent model, and DU-145 human prostate carcinoma tumors were grown in nude mice as an androgen-independent model.
In the Shionogi experiment, male nu/nu mice (8-9 weeks old, 10 mice/group) were inoculated with Shionogi carcinoma cells and tumors were grown to approximately 150 mm^3 before initiation of Compound A administration. Mice were treated twice daily, i.p. with 20% HPβCD vehicle control, 5 mg/kg Compound A or 15 mg/kg Compound A. Tumor growth was inhibited over 15 days of Compound A treatment relative to vehicle control animals. At the end of 15 days, mean tumor volumes were inhibited by 41% and 69% in the 5 mg/kg and 15 mg/kg groups, respectively.

[6] = tested on: DU-145 human prostate carcinoma tumors; experiment: Androgen-independent tumor growth, DU-145 in nude mice; assay type: in vivo; details: 15, 45 or 90 mg/kg twice daily i.p., over 30 days
Procedure: as §1
In the DU-145 experiment, male nu/nu mice (9-10 weeks old, 10 mice/group) were inoculated with DU-145 prostate carcinoma cells and tumors were grown to approximately 65 mm^3 before initiation of Compound A administration. Mice were treated twice daily, i.p. with 20% HPβCD vehicle control, 15 mg/kg, 45 mg/kg or 90 mg/kg of Compound A. As expected, tumor growth was not inhibited over 30 days in any of the Compound A groups.

[7] = males, all dose groups, 28 days oral
[8] = 7 days, 0.1, 0.5, 2.5, 12.5 mg/kg
[9] = 7 days, doses of 2.5 and 12.5 mg/kg

## CNC(=O)CC1CCCN(C2CCN(CCC(/C(CN(C)C(=O)c3cc(Cl)cc(Cl)c3)=N/OC)c3ccc(Cl)c(Cl)c3)CC2)C1=O (stereo not shown) [Compound A]
[1]; beagle dogs, oral gavage, 28 daily doses, all dose groups (15, 30, 60 mg/kg)
  organ weights of male and female reproductive tract tissues, lower than concurrent controls: 33-86%
[1]; females, at least one dog in each dose group, 28 days oral
  appearance of ovaries and uteri: appeared immature
[1]; males, 28 days oral
  aspermia/hypospermia in the epididymides: observed in all dose groups
[1]; [7]
  atrophy of epididymides (microscopic grade): minimal to moderate
  atrophy of prostate gland (microscopic grade): mild to moderate
  atrophy of seminiferous tubules in the testes (microscopic grade): severe
[1]; mid- and high-dose males, 28 days oral
  vacuolation of epithelium in the epididymides (grade): mild
[2]; Day 0, 2 and 6, p≦0.0001
  group mean serum T concentration compared to concurrent controls: significant lower
[2]; Day 0, 2 and 6, p≦0.0005
  group mean serum LH concentration compared to concurrent controls: significant lower
[2]; male beagle dogs, oral gavage
  pulsatile patterns of serum LH and T: lacked the normal pulsatile patterns
[3]; [8]
  histopathologic changes in testes and epididymides: degeneration and cellular debris in the seminiferous tubules, interstitial cell vacuolation in the testes, epithelial vacuolation, atrophy, apoptosis, hypospermia, and interstitial edema of the epididymides
  histopathologic changes of the prostate gland: Epithelial apoptosis and atrophy
[3]; [9]
  decrease in serum DHEA (dehydroepiandrosterone): clearly observed
  decrease in serum LH: clearly observed
  decrease in serum T: clearly observed
  decrease in serum androstenedione: clearly observed
[4]; Day 7, sterile water group 0.37 ng/ml
  group mean serum androstenedione: 0.01 ng/mL
[4]; Day 7, sterile water group 0.88 ng/ml
  group mean serum DHEA: 0.03 ng/mL
[4]; Day 7, sterile water group 1.5 ng/ml
  group mean serum T: 0.05 ng/mL
[4]; Day 7, sterile water group 14.7 ng/ml
  group mean serum LH: 2.4 ng/mL
[4]; Day 21 (14 days postdose)
  serum DHEA group mean and peak mean concentrations versus concurrent controls: not significantly different
  serum LH group mean and peak mean concentrations versus concurrent controls: not significantly different
  serum T group mean and peak mean concentrations versus concurrent controls: not significantly different
  serum androstenedione group mean and peak mean concentrations versus concurrent controls: not significantly different
[4]; twelve dogs in the group, shortly after the sixth dose
  mortality: one dog died
Serum testosterone; 15 mg/kg oral in 20% HPβCD, LHRH i.m. after 1 hour, bled after an additional hour
  inhibition of serum testosterone: 62%
Serum testosterone; 90 mg/kg, male nude mice
  reduction of LHRH-stimulated serum testosterone (statistical significance): statistically significant (p<0.01) reduction
Serum testosterone; 300 mg/kg oral in 20% HPβCD, LHRH i.m. after 1 hour, bled after an additional hour
  maximum inhibition of serum testosterone: 83%
[5]; 5 mg/kg twice daily i.p.
  inhibition of mean tumor volume: 41%
[5]; 15 mg/kg twice daily i.p.
  inhibition of mean tumor volume: 69%
[6]
  tumor growth inhibition: not inhibited

## CN(C/C(=N\O)C(CCN1CCC(N2CCCC(CC(N)=O)C2=O)CC1)c1ccc(Cl)c(Cl)c1)C(=O)c1cc(Cl)cc(Cl)c1 (stereo not shown) [B]
Serum testosterone; 90 mg/kg, male nude mice
  reduction of LHRH-stimulated serum testosterone (statistical significance): statistically significant (p<0.01) reduction

## CNC(=O)C[C@H]1CCCN(C2CCN(CC[C@@H](/C(CN(C)C(=O)c3cc(Cl)cc(Cl)c3)=N/O)c3ccc(Cl)c(Cl)c3)CC2)C1=O [F]
Serum testosterone; 90 mg/kg, male nude mice
  reduction of LHRH-stimulated serum testosterone (statistical significance): statistically significant (p<0.01) reduction

## CNC(=O)CC1CCCN(C2CCN(CCC(/C(CNC(=O)c3cc(Cl)cc(Cl)c3)=N/OC)c3ccc(Cl)c(Cl)c3)CC2)C1=O (stereo not shown) [Compound D]
Serum testosterone; 90 mg/kg, male nude mice
  reduction of LHRH-stimulated serum testosterone (statistical significance): failed to reach statistical significance
Serum testosterone; 90 mg/kg, male nude mice, LHRH-stimulated
  reduction of mean serum testosterone: 19%

## CO/N=C(\CN(C)C(=O)c1cc(Cl)cc(Cl)c1)C(CCN1CCC(N2CCCC(CC(N)=O)C2=O)CC1)c1ccc(Cl)c(Cl)c1 (stereo not shown) [C]
Serum testosterone; 90 mg/kg, male nude mice
  reduction of LHRH-stimulated serum testosterone (statistical significance): statistically significant (p<0.01) reduction

## CO/N=C(\CNC(=O)c1cc(Cl)cc(Cl)c1)C(CCN1CCC(N2CCC[C@H](CC(N)=O)C2=O)CC1)c1ccc(Cl)c(Cl)c1 (stereo partly shown) [E]
Serum testosterone; 90 mg/kg, male nude mice
  reduction of LHRH-stimulated serum testosterone (statistical significance): statistically significant (p<0.01) reduction

Source: patent US6569872B1, “Use of neurokinin receptor antagonists to treat androgen-dependent diseases” (Schering Corporation, priority 2001, dated 2003)
